Assay results as given in PMC7997032, “Organic synthesis and anti-influenza A virus activity of cyclobakuchiols A, B, C, and D” (PLoS ONE, 2021).
“And” between values parts separate entries of the source, which are not always exact repeats. Equal values may be shown once.

Tested on: MDCK cells
Experiment: MTT assay (cytotoxicity against MDCK cells)
Type: cell-based, canine
Settings: MDCK cells; for MTT, DMSO as 100 (DMSOを 100として), ave / MTT 72h AVE (DMSO = 100): 72h; for MTT, DMSO as 100 (DMSOを 100として), ave: mean of 5 wells (200409 #1 and #3); for MTT 72h AVE (DMSO = 100): summary AVE; for MTT 24h, AVE (DMSO as 100): 0.78 uM, relative to DMSO = 100; for MTT 24h, AVE (DMSO as 100) / MTT 24h, 570-650nm, DMSO as 100, ave: mean of 5 wells from 3 experiments; for MTT 24h, 570-650nm, DMSO as 100, single replicate: individual wells (200331; 200403 #2 1,2; 200403 #3 1,2); for 570-650nm (MTT absorbance, single wells) / 570-650nm ave (mean MTT absorbance of 5 wells) / MTT absorbance with DMSO as 100 (DMSOを 100として), single wells: MTT 72h; for 570-650nm (MTT absorbance, single wells): experiments #1-#3, duplicate wells; for MTT absorbance with DMSO as 100 (DMSOを 100として), single wells: relative to mean of DMSO
Experimental: 1–5 (0.8–100 μM) were prepared in DMSO (100 μM, 1%; 50 μM, 0.5%; 25 μM, 0.25%; 12.5 μM, 0.125%; 6.3 μM, 0.063%; 3.1 μM, 0.031%; 1.6 μM, 0.016%; 0.8 μM, 0.008%) and mixed with infection medium (DMEM supplemented with 1% bovine serum albumin (BSA; Wako), P/S and 4 mM L-glutamine). The resulting mixture was added to the cells and incubated for 24 or 72 h at 37°C in the presence of 5% CO2. After incubation, cell viability was determined using an MTT cell count kit (Nacalai Tesque) according to the manufacturer’s instructions, as previously described.

[1] = 3.13uM (3.125uM in summary block)

SMILES | MTT, DMSO as 100 (DMSOを 100として), ave (0.78uM) | MTT, DMSO as 100 (DMSOを 100として), ave (1.56uM) | MTT 72h AVE (DMSO = 100) (6.25 (uM)) | MTT 72h AVE (DMSO = 100) (12.5 (uM)) | MTT 72h AVE (DMSO = 100) (25 (uM)) | MTT 72h AVE (DMSO = 100) (50 (uM)) | MTT 72h AVE (DMSO = 100) (100 (uM)) | MTT 24h, AVE (DMSO as 100) | MTT 24h, 570-650nm, DMSO as 100, single replicate (1.56uM) | MTT 24h, 570-650nm, DMSO as 100, ave (1.56uM) | MTT 24h, 570-650nm, DMSO as 100, single replicate (3.125uM) | MTT 24h, 570-650nm, DMSO as 100, ave (3.125uM) | MTT 24h, 570-650nm, DMSO as 100, single replicate (6.25uM) | MTT 24h, 570-650nm, DMSO as 100, ave (6.25uM) | MTT 24h, 570-650nm, DMSO as 100, single replicate (12.5uM) | MTT 24h, 570-650nm, DMSO as 100, ave (12.5uM) | MTT 24h, 570-650nm, DMSO as 100, single replicate (25uM) | MTT 24h, 570-650nm, DMSO as 100, ave (25uM) | MTT 24h, 570-650nm, DMSO as 100, single replicate (50uM) | MTT 24h, 570-650nm, DMSO as 100, ave (50uM) | other results
C=C[C@@](C)(/C=C/c1ccc(O)cc1)CCC=C(C)C [(+)-(S)-baku.] | 101.639 | 110.926 | 135.974 | 116.119 | 164.273 | 107.359 | 28.7987 | 106.986 | 103.696 and 92.7462 and 106.461 and 104.983 and 94.4526 | 100.468 | 107.294 and 97.5488 and 102.772 and 101.94 and 95.2685 | 100.964 | 108.582 and 98.5976 and 113.546 and 113.49 and 101.426 | 107.128 | 102.57 and 93.2171 and 103.913 and 112.439 and 104.302 | 103.288 | 108.875 and 109.835 and 96.176 and 115.944 and 106.769 | 107.52 | 119.708 and 122.77 and 91.784 and 117.912 and 113.767 | 113.188 | MTT 72h AVE (DMSO = 100) (3.13 (uM)): 132.176; MTT 24h, 570-650nm, DMSO as 100, single replicate (100uM): 79.067 and 84.0157 and 140.292 and 89.6781 and 39.1391; MTT 24h, 570-650nm, DMSO as 100, ave (100uM): 86.4384; 570-650nm (MTT absorbance, single wells) (0.78uM): 0.9216 and 1.0625 and 0.5565 and 0.8595 and 0.8044 and 0.7519; 570-650nm (MTT absorbance, single wells) (1.56uM): 0.9826 and 0.8065 and 0.7089 and 0.7456 and 0.6067 and 0.9846; 570-650nm ave (mean MTT absorbance of 5 wells) (3.125uM): 0.8903; MTT absorbance with DMSO as 100 (DMSOを 100として), single wells (3.125uM): 116.345 and 146.749 and 122.432 and 152.375 and 122.981; 570-650nm (MTT absorbance, single wells) [1]: 0.8284 and 0.7837 and 0.9885 and 0.8247 and 1.0264 and 0.8069; 570-650nm ave (mean MTT absorbance of 5 wells) (6.25uM): 0.9301; 570-650nm (MTT absorbance, single wells) (6.25uM): 0.9089 and 0.9123 and 0.7679 and 0.9049 and 1.1563 and 0.9272; MTT absorbance with DMSO as 100 (DMSOを 100として), single wells (6.25uM): 133.377 and 112.266 and 132.295 and 169.05 and 132.88; 570-650nm ave (mean MTT absorbance of 5 wells) (12.5uM): 0.9243; 570-650nm ave (mean MTT absorbance of 5 wells) (25uM): 1.2355; 570-650nm (MTT absorbance, single wells) (25uM): 1.2252 and 1.1953 and 1.2444 and 1.2282 and 1.1748 and 1.3049; MTT absorbance with DMSO as 100 (DMSOを 100として), single wells (25uM): 165.457 and 163.303 and 156.203 and 173.501 and 162.904; 570-650nm ave (mean MTT absorbance of 5 wells) (50uM): 0.9798; 570-650nm ave (mean MTT absorbance of 5 wells) (100uM): 0.2711; 570-650nm (MTT absorbance, single wells) (100uM): 0.1982 and 0.2036 and 0.3213 and 0.2978 and 0.3355 and 0.2029; MTT absorbance with DMSO as 100 (DMSOを 100として), single wells (100uM): 34.1264 and 31.6304 and 35.6346 and 21.5507 and 21.0515
C=C[C@]1(C)CC[C@H](C(=C)C)[C@@H](c2ccc(O)cc2)C1 [Cyclo. A] | 105.716 | 110.791 | 127.594 | 109.498 | 139.303 | 115.79 | 76.9772 | 98.7342 | 96.4276 and 83.3373 and 92.051 and 113.855 and 70.8632 | 91.3068 | 90.7466 and 86.7485 and 103.011 and 110.013 and 65.2713 | 91.158 | 105.57 and 88.5259 and 94.0239 and 117.378 and 78.8606 | 96.8717 | 102.53 and 101.147 and 92.3748 and 125.129 and 78.3815 | 99.9126 | 98.9543 and 93.1175 and 86.0556 and 130.26 and 81.3877 | 97.9551 | 112.693 and 118.709 and 75.6574 and 146.7 and 98.6391 | 110.48 | MTT, DMSO as 100 (DMSOを 100として), ave (3.125uM): 135.974; MTT 24h, 570-650nm, DMSO as 100, single replicate (100uM): 18.7526 and 22.4148 and 109.83 and 20.6307 and 19.4099; MTT 24h, 570-650nm, DMSO as 100, ave (100uM): 38.2076; 570-650nm (MTT absorbance, single wells) (0.78uM): 0.7522 and 1.0518 and 0.8482 and 0.7789 and 0.8023 and 0.8685; 570-650nm (MTT absorbance, single wells) [1]: 0.6647 and 0.8265 and 0.8832 and 1.0096 and 1.017 and 1.0051; 570-650nm ave (mean MTT absorbance of 5 wells) (6.25uM): 0.8727; 570-650nm (MTT absorbance, single wells) (6.25uM): 0.8664 and 0.8077 and 0.726 and 1.0037 and 0.9599 and 0.9185; MTT absorbance with DMSO as 100 (DMSOを 100として), single wells (6.25uM): 118.085 and 106.14 and 146.74 and 140.336 and 126.667; 570-650nm ave (mean MTT absorbance of 5 wells) (12.5uM): 0.8716; 570-650nm (MTT absorbance, single wells) (12.5uM): 0.7966 and 0.8514 and 0.5539 and 1.0521 and 0.9774 and 0.9778; MTT absorbance with DMSO as 100 (DMSOを 100として), single wells (12.5uM): 69.5889 and 132.18 and 122.795 and 122.845 and 100.08; 570-650nm ave (mean MTT absorbance of 5 wells) (25uM): 1.0477; 570-650nm (MTT absorbance, single wells) (25uM): 0.9324 and 1.0073 and 0.9924 and 1.0024 and 1.1748 and 1.1365; MTT absorbance with DMSO as 100 (DMSOを 100として), single wells (25uM): 131.951 and 133.28 and 156.203 and 151.11 and 123.973; 570-650nm ave (mean MTT absorbance of 5 wells) (50uM): 1.057; 570-650nm (MTT absorbance, single wells) (50uM): 1.0423 and 1.105 and 0.762 and 0.9117 and 1.3276 and 1.24; MTT absorbance with DMSO as 100 (DMSOを 100として), single wells (50uM): 83.4959 and 99.8992 and 145.471 and 135.873 and 114.21; 570-650nm ave (mean MTT absorbance of 5 wells) (100uM): 0.7247
